Source: ChEMBL document CHEMBL4732085, “Di-aryl guanidinium derivatives: Towards improved α2-Adrenergic affinity and antagonist activity” (Eur J Med Chem, 2021)

Tests used:
[1] = biological target: T1, Adrenergic receptor alpha-2 (Homo sapiens, UniProt P08913+P18825+P18089); test: Displacement of [3H]-RX821002 from adrenergic alpha 2 receptor in human brain membrane by liquid scintillation spectroscopy; assay type: cell membranes
T1 sequence (P08913 whole entry): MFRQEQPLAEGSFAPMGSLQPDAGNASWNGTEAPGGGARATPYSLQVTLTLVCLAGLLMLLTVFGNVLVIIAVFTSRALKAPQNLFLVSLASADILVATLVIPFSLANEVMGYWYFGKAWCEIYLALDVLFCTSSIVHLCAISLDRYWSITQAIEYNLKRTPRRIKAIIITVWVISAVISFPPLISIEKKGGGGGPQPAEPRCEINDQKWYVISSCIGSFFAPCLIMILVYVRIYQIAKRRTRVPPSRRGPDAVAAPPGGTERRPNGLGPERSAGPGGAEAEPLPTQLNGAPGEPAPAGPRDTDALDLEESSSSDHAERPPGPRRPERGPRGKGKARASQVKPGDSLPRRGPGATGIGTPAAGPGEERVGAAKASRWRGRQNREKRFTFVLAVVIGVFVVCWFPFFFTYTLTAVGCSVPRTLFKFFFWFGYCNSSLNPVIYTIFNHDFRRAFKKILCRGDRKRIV
T1 sequence (P18825 whole entry): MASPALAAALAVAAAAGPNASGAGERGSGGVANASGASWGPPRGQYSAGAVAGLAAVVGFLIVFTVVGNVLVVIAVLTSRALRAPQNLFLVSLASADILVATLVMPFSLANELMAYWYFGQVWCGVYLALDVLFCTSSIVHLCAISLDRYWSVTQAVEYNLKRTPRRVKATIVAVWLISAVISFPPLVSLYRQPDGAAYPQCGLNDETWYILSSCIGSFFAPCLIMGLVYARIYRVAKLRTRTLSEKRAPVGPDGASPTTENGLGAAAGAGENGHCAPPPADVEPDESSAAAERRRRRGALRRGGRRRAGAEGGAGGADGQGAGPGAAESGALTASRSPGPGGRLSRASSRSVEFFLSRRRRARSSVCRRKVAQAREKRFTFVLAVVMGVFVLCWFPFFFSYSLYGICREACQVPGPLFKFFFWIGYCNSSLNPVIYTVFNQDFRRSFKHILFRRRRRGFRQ
T1 sequence (P18089 whole entry): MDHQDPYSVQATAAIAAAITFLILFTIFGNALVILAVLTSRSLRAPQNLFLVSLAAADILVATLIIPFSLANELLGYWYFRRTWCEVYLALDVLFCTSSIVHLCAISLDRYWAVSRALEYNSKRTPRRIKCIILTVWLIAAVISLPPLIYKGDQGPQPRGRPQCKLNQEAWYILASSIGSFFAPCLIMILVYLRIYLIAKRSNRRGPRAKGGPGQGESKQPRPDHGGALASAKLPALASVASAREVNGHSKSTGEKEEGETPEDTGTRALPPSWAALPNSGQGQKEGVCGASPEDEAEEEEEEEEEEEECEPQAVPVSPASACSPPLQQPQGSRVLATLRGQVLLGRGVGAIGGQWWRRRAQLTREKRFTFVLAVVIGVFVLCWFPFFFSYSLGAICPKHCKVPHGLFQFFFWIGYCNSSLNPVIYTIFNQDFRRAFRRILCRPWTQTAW

[2] = biological target: T2, Adrenergic receptor alpha-2 (Homo sapiens) (UniProt P08913+P18825+P18089); test: Antagonist activity at adrenergic alpha 2 receptor in human brain membrane assessed as inhibition of UK14304-induced stimulation of [35S]GTPgammaS binding at 10 uM by liquid scintillation spectroscopy (reference value: 153 +/- 4%); assay type: functional, cell membranes; conditions: filed as antagonist
[3] = biological target: T1, Adrenergic receptor alpha-2; test: Antagonist activity at adrenergic alpha 2 receptor in human brain membrane assessed as inhibition of UK14304-induced stimulation of [35S]GTPgammaS binding by liquid scintillation spectroscopy (reference value: 1.77 +/- […]); assay type: functional, cell membranes
[4] = biological target: T2, Adrenergic receptor alpha-2 (Homo sapiens); test: Agonist activity at adrenergic alpha 2 receptor in human brain membrane assessed as stimulation of [35S]GTPgammaS binding at 10 uM in presence of adrenergic alpha 2 receptor antagonist RX821002 by liquid scintillation spectroscopy; assay type: functional, cell membranes; conditions: filed as agonist
[5] = biological target: T2, Adrenergic receptor alpha-2 (Homo sapiens); test: Agonist activity at adrenergic alpha 2 receptor in human brain membrane assessed as stimulation of [35S]GTPgammaS binding at 10 uM by liquid scintillation spectroscopy relative to control; assay type: functional, cell membranes; conditions: filed as agonist
[6] = biological target: T1, Adrenergic receptor alpha-2; test: Agonist activity at adrenergic alpha 2 receptor in human brain membrane assessed as stimulation of [35S]GTPgammaS binding in presence of adrenergic alpha 2 receptor antagonist RX821002 by liquid scintillation spectroscopy; assay type: functional, cell membranes
[7] = biological target: T1, Adrenergic receptor alpha-2; test: Agonist activity at adrenergic alpha 2 receptor in human brain membrane assessed as stimulation of [35S]GTPgammaS binding by liquid scintillation spectroscopy; assay type: functional, cell membranes

| Ki [1] [µM] | Emax [2] [%] | EC50 [3] [µM] | SMILES | also measured |
| --- | --- | --- | --- | --- |
| 1.745 | – | – | CCCNC(=N)Nc1ccc(CCc2ccc(NC3=NCCN3)cc2)cc1.Cl.Cl | – |
| 0.355 | – | – | Cl.Cl.N=C(NCc1ccco1)Nc1ccc(Cc2ccc(NC(=N)NCc3ccco3)cc2)cc1 | – |
| 0.138 | – | – | Cl.Cl.N=C(N)Nc1ccc(Cc2ccc(NC3=NCCN3)nc2)cn1 | – |
| 0.674 | – | – | Cl.Cl.N=C(N)Nc1ccc(Cc2ccc(NC3=NCCN3)nc2)cc1 | – |
| 0.0868 | 140 | 39.9 | Cl.Cl.N=C(N)Nc1ccc(Cc2ccc(NC3=NCCN3)cc2)cn1 | – |
| 0.0776 | – | – | N=C(N)Nc1ccc2c(c1)CCCC2 | – |
| 0.742 | – | – | CCCNC(=N)Nc1ccc(Cc2ccc(NC(=N)NCCC)cc2)cc1.Cl.Cl | – |
| 0.00177 | 155 | 11.6 | Cl.Cl.N=C(NCc1ccco1)Nc1ccc(Cc2ccc(NC3=NCCN3)cc2)cc1 | Emax [4]: 130%; Emax [5]: 168%; EC50 [6]: 2356 µM; EC50 [7]: 534 µM |
| 0.00082 | 171 | 30 | CCCNC(=N)Nc1ccc(Cc2ccc(NC3=NCCN3)cc2)cc1.Cl.Cl | Emax [4]: 110%; Emax [5]: 139%; EC50 [6]: 487 µM; EC50 [7]: 46 µM |
| 0.2318 | – | – | CN(C)c1ccc(/N=C(/N)NCc2ccco2)cc1 | – |
| 0.0676 | 122 | 30.8 | CCCNC(=N)Nc1ccc(Cc2ccc(NC3=NCCN3)cc2)cn1.Cl.Cl | – |
| 0.0339 | 96 | 52.3 | Cl.Cl.N=C(NCc1ccco1)Nc1ccc(Cc2ccc(NC3=NCCN3)cc2)cn1 | Emax [4]: 154%; Emax [5]: 149%; EC50 [6]: 252 µM; EC50 [7]: 194 µM |
| 0.0123 | 110 | 20.2 | Cl.Cl.N=C(N)Nc1ccc(Cc2ccc(N=C3NCCN3)cc2)cc1 | Emax [4]: 122%; Emax [5]: 126%; EC50 [6]: 64020 µM; EC50 [7]: 18 µM |
| 0.0899 | 127 | 10.2 | CCCNC(=N)Nc1ccc(Cc2ccc(NC3=NCCN3)nc2)cn1.Cl.Cl | – |
| 0.1659 | – | – | N=C(N)NC1C=C2CCCCC2=CN1 (stereo unspecified) | – |
| 0.263 | – | – | Cl.Cl.N=C(NCc1ccco1)Nc1ccc(Cc2ccc(NC3=NCCN3)nc2)cn1 | – |
| – | 98 | 87.2 | COC1(C2=NCCN2)COc2ccccc2O1 (stereo unspecified) | – |
| 0.433 | – | – | Cl.Cl.N=C(NCc1ccco1)Nc1ccc(Cc2ccc(NC3=NCCN3)nc2)cc1 | – |
| 0.12 | 139 | 4.14 | CCCNC(=N)Nc1ccc(Cc2ccc(NC3=NCCN3)nc2)cc1.Cl.Cl | – |
| 0.418 | – | – | Cl.Cl.N=C(NCc1ccco1)Nc1ccc(CCc2ccc(NC3=NCCN3)cc2)cc1 | – |
| 0.175 | – | – | Cl.Cl.N=C(N)Nc1ccc(CCc2ccc(N=C3NCCN3)cc2)cc1 | – |
| 2.485 | – | – | Cl.Cl.N=C(NCCO)Nc1ccc(Cc2ccc(NC(=N)NCCO)cc2)cc1 | – |

| SMILES | Ki [1] [µM] | Emax [2] [%] | EC50 [3] [µM] | also measured |
| --- | --- | --- | --- | --- |
| c1cc2c(cc1NC1=NCCN1)CCCC2 | 0.0468 | – | – | – |
